Common to all, as to type: cell-based
In experiment [1] the test system is TDP-43 inclusions in PC12 cells stably expressing wild type (WT) TDP-43-GFP. Description: Dose response assay for TDP-43 inhibition. As to conditions: Rattus norvegicus, PC-12, inhibition of TDP-43 inclusions, stressed with 15 μM, 12-point dose response. As to the method:
Exemplary compounds of the invention were evaluated for efficacy in inhibiting TDP-43 inclusions using a dose response assay. Briefly, PC12 cells stably expressing wild type (WT) TDP-43-GFP were stressed with 15 μM to induce TDP-43 inclusions. The cells were then treated with exemplary compounds of the invention and the inhibitory effect on TDP-43 inclusions was observed using fluorescent microscopy. The ratio of cells with TDP-43 inclusions was calculated based on the total number of cells with detectable GFP expression. A 12-point dose response curve was generated, and the IC50 for each compound tested was determined.

Experiment [2] has as its system Embryonic mouse hippocampal neurons transduced with AAV1 EGFP, WT TDP-43 EGFP, A315T TDP-43 EGFP, or Q331K TDP-43 EGFP. Put plainly: Neuroprotection assay. As to conditions: average rescue total dendrite length; neurons treated DIV7, 9, 11 at 10 times the IC50 value; fixed DIV12. As to the method: CMF dissection buffer: 1× Hank's balanced salt solution (Ca—/Mg, 500 mL) and 10 mM HEPES, pH 7.25-7.3 (1M stock, 5 mL)
Plating media: MEM (Earle salts+/Glutamine, 95 mL), FBS (to 2.5%, 2.5 mL), Pen/Strep (lx, 1 mL), glutamine (lx, 1 mL), and D-glucose (0.6% w/v, 0.6 g)
Feeding media: neurobasal media (96 mL), B27 supplement (2 mL), Pen/Strep (1 mL), and glutamine (1 mL).
Embryonic mouse hippocampal neurons were cultured according to Kaech, S. and Banker, G. (2006) Nat Protoc 1:2406-2415 and dissected at PO from CD1 mice. Once all the hippocampi were removed, they were placed in a 15 mL conical Falcon tube on ice and brought to a final volume of 4.5 mL with CMF dissection buffer. 0.5 mL of a 2.5% trypsin-EDTA solution was then added, and the mixture was incubated at 37° C. for 15 min. The trypsin solution was gently removed, leaving the tissue at the bottom of the Falcon tube. 5 mL CMF dissection buffer was then added, and after gentle mixing, the tissue was allowed to sediment. This procedure was repeated three times. The hippocampi were then dissociated by adding 1.8 mL platting media and repeatedly pipetting in a glass Pasteur pipette; the dissociation process was repeated 5-10 times. The cells were then passed through a 70 um cell strainer into a 50 mL conical tube to remove clumps and debris, and the neurons were plated on glass coverslips coated with poly-D-lysine/laminin. On DIV 1 neurons were transduced with AAV1 EGFP, WT TDP-43 EGFP, A315T TDP-43 EGFP, or Q331K TDP-43 EGFP. […] Neurons were traced and analyzed using NeuronJ.
Results of the neuroprotection assay for exemplary compounds of the invention are summarized in Table 2, wherein A represents an average rescue total dendrite length of >150%; B represents an average rescue total dendrite length of 100-149%; C represents an average rescue total dendrite length of 50-99%; D represents an average rescue total dendrite length of 0-49%; E represents an average rescue total dendrite length of <0%; and ND signifies that the average rescue total dendrite length was not determined.

Experiment [3] concerns TDP-43 aggregation in PC12 cells stably expressing TDP-43^Q331K::eGFP. Description: In vitro efficacy assay, TDP-43 aggregation concentration-response. As to conditions: Rattus norvegicus, PC-12, inhibition of TDP-43 aggregation; PC12 TDP-43^Q331K::eGFP, 1 hour pre-treatment, 15 μM sodium arsenite for 23 hours; 10-point dose response. In a few lines:
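PC12 cells stably expressing TDP-43^Q331K::eGFP pre-treated with compound for 1 h, then stressed with 15 μM sodium arsenite for 23 h. Fluorescence microscopy scored the fraction of GFP-positive cells carrying TDP-43 aggregates across compound concentrations.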

As a reminder, the IC50 is the concentration at which inhibition is half-maximal.

Regarding `COc1ccccc1OCC(=O)NC1CCCN(c2nc3ccccc3s2)C1` (stereo not shown) [Compound 102, N-(1-(benzo[d]thiazol-2-yl)piperidin-3-yl)-2-(2-methoxyphenoxy)acetamide], in experiment [1], the IC50 is 251 to 500 nM. Besides, the “Average Additive Dendrite Length (%)” value in experiment [2] was “B (B represents an average rescue total dendrite length of 100-149%)”.

For `CCN(CC1CCCN(CCc2cccc(OC)c2)C1)C(=O)c1cc2ccccc2[nH]1` (stereo not shown) [Compound 101, N-ethyl-N-((1-(3-methoxyphenethyl)piperidin-3-yl)methyl)-1H-indole-2-carboxamide], the values for the IC50 in experiment [3] and in experiment [1] were less than 1500 nM and 101 to 250 nM, respectively. Besides, the “Average Additive Dendrite Length (%)” value in experiment [2] is recorded as “C (C represents an average rescue total dendrite length of 50-99%)”.

In experiment [1], `COc1cc(NC(=O)CCC2CCCN(Cc3ccc(F)c(OC)c3)C2)cc(OC)c1` (stereo not shown) [Compound 100, N-(3,5-dimethoxyphenyl)-3-(1-(4-fluoro-3-methoxybenzyl)-piperidin-3-yl)propanamide] gave an IC50 of 101 to 250 nM. Besides, the “Average Additive Dendrite Length (%)” value in experiment [2] was “E (E represents an average rescue total dendrite length of <0%)”.

These data come from patent US20180305334A1, “COMPOUNDS, COMPOSITIONS AND METHODS OF USE AGAINST STRESS GRANULES” (Aquinnah Pharmaceuticals, Inc., priority 2015, published 2018).
